From US11440939B2, “Anticancer peptides” (IDP DISCOVERY PHARMA, S.L., priority 2017, dated 2022)
Numbered stars: 1 amine (or outer) side, 2 acyl side, 3 side chain; on linkers, the order of the positions; unused ones are H or OH. Bridge positions count the residues as written; N and C are the ends. Square brackets hold non-standard residues; d marks the D form. Peptide text beside a SMILES is read from it. ξ: configuration not given here. ξαMeNle(6-ylidene) = CC(CCCC=[*:3])(N[*:1])C(=O)[*:2]; X1 = CC(CCCCCCC=[*:3])(N[*:1])C(=O)[*:2]

Experiments:
Type in all cases: cell-based
NCI-H82 = conditions: 72 h
Procedure: NCI-H82, epithelial (small cell lung cancer, SCLC), ATCC-CRL-5811;
Cell line MCF-7 was cultured in incubator under CO2 (6%) at 37° C. in DMEM high glucose (Dulbecco's Modified Eagle Solution, Gibco-BRL 31966-21) medium with 10% fetal bovine serum inactivated (FBS) (Gibco-BRL 10106-169). Cell lines HL-60, NCI-H524, NCI-H526, NCI-H69, NCI-H82, NCI-H187 and H5B were cultured in an incubator at 37° C. in RPMI-1640 (Sigma R8758) medium with 10% of fetal bovine serum inactivated (FBS) and 2 mM glutamine (Sigma G7513). Cell line NCI-H510A was cultured in incubator in F12K medium with 10% of fetal bovine serum inactivated (FBS). Cell line GBM-18 and GBM-27 were cultured in incubator under CO2 (6%) at 37° C. in complete medium (Neurobasal+B27+Glutamax+Growth factors).
During the amplification step and the assays, adherent cells were rinsed with DPBS (Dulbecco's Phosphate Buffered Saline, Sigma D1283) three times and afterward treated for 5 minutes with trypsin ([…]) (Gibco-BRL, 15400054) in solution of DPBS at 37° C., and, once detached, transferred in the culturing medium. No-adherent cells were centrifuged and transferred in the culturing medium. Cells were counted in a Neubauer chamber after labelling with Tripan-Blue.
MCF-7, NCI-H187, NCI-H69, NCI-H526 and H5B cells were seeded at a density of 5000 cells/well; NCI-H524 and NCI-H82 were seeded at a density of 2500 cells/well; HL-60 and NCI-H510A at 10000 cells/well in 100 μl of medium in 96 well plates. After 24 h, the compounds to be tested were added to calculate the dose/response curve at the starting concentration of 100 μM with serial dilutions (1:1). Controls were the untreated cells. Each experiment was performed in triplicate.
Cells were incubated during 72 h in incubator under CO2 atmosphere at 37° C. Cell viability was measured by means of MTT (3-(4,5-dimethylthiazol-2-yl)-2,5-diphenyltetrazolium bromide) assay, Alamar Blue® (Biosource DAL1100) and Hexosaminidase activity test, consecutively, following manufacturer instructions.
MTT: 1. Stock solution of MTT (475989 Calbiochem) was 5 mg/ml in PBS 1×. As negative control (experiment noise) 3 wells were treated with 20 μl/well of a solution of SDS 10% in H2O. The same control was used for Alamar Blue/Hexosaminidase. 10 μl/well of MTT solution were added and the plate was incubated for 3-4 hr. The medium was discarded and 100 μl of extracting buffer (PBS 1×, 15% SDS, 50% […] N,N-Dimethylformamide, pH 4,7) were added to each well. Plates were incubated for 16 h at room temperature under orbital shaking. Absorbance at 570 nm was finally measured.
Alamar Blue: 10 μl Alamar Blue solution was added to each well and the plates were incubated for […] in the incubator. Fluorescence ratio at 535/590 (excitation/emission) was measured in Cytofluor (Millipore) fluorimeter. Blank control was determined by lysis of untreated cells with con 2% of Triton X100, right before adding Alamar Blue solution.
Hexosaminidase activity test: after Alamar Blue lecture, medium was discarded and plates were rinsed once with PBS. 60 μl hexosaminidase substrate (p-nitrophenol-N-acetyl-beta-D-glucosamide 7.5 mM [Sigma N-9376], sodium citrate 0.1 M, pH 5.0, 0.25% Triton X-100) was added to each well and the plates were incubated at 37° C. for 2-5 h, according to the cell type (hexosaminidase activity changes according to the cell type). […] Blank control was the same as described before.
Data analysis was performed calculating the percentage of cell viability normalized vs. the values of negative control, which was considered equal to 100%. The dose/response curve was fitted through the sigmoidal equation dose-response (variable slope) and the EC50 values were calculated as follow: Y=Bottom+(Top−Bottom)/(1+10^{[(Log EC50−X)*HillSlope]},

[1] = Hepatotoxicity assay, trypan blue exclusion, 24 h; conditions: female, primary human hepatocytes, human hepatocytes, 24 h
Description: (§1) NCI-510A, epithelial (small cell lung cancer, SCLC), ATCC-HBT-124; and Hepatocytes (normal liver), from a donor was provided by Foundation DTI-Donation & Transplantation Institute from surgical wastes and from organs not suitable for transplantation
(§2) Human liver from a donor was subjected to hepatocyte isolation by using a two-step tissue microperfusion technique taking maximum care to avoid anoxia before cannulation, since hepatocytes are cells highly sensitive to oxygen levels. An initial anoxic state could result in a low viability of the cells, and will later affect their metabolic capacity in the culture. Briefly, liver tissue was cannulated by using the accessible vessels with a 1 mm-diameter needle. A balanced salt solution was injected to clean the organ by using a peristaltic pump adjusted to a flow rate of 18-20 ml/min. After washing, a solution containing collagenase was added for liver disintegration. The cell suspension obtained using this process was filtered and centrifuged and, after a couple of washings to remove collagenase, cells were re-suspended in culture medium Ham's F-12/William (1:1) medium supplemented with 2 mM glutamine, […] sodium selenite, 2% newborn calf serum, 50 mU/ml penicillin, 50 μg/ml streptomycin, 0.1% bovine serum albumin, 1.68 mM NAME, 26 mM sodium bicarbonate, 25 μg/ml transferrin, 65.5 μM ethanolamine, 7.2 μM linoleic acid, 17.5 mM glucose, 6.14 mM ascorbic acid and 10 nM insulin.
(§3) After resuspension, a cell aliquot was removed and viability was determined by cell counting using the trypan blue exclusion method. Trypan blue uptake is the result of cell membrane alteration and in consequence of cell death. Thus, to quantify cell viability, 0.4% trypan blue in saline was added to the cells and these were immediately loaded in a Neubauer chamber. Viable cells were counted in 5 different fields under the optical microscope as non-blue cells. % Viability=Number of non-blue cells×100/Number of total cells Viability and Hepatoxicity Assay
(§4) Human hepatocytes isolated and re-suspended as described before were seeded at 100,000 viable cells/well on 96 collagen-coated plates in order to assess compound's cytotoxicity. After 1 hour in culture, medium was renewed to eliminate cell debris. Cultured human hepatocytes were allowed to stay in culture for 24 hours prior performing the experiments. After 24 h, the compounds to be tested were added to calculate the dose/response curve at the starting concentration of 400 μM with serial dilutions. Each experiment was performed in triplicate. Cells were incubated during 24 h in incubator under CO2 atmosphere at 37° C.
(§5) The viability was determined by cell counting using the trypan blue exclusion method. % Viability=Number of non-blue cells×100/Number of total cells Statistics

Human hepatocytes = assay: Hepatotoxicity assay, trypan blue exclusion, 24 h; conditions: dose of 4 and 14 μM
Description: as §1, §2, §3, §4, §5

SMILES: CC(C)C[C@H](NC(=O)[C@H](CCCCN)NC(=O)[C@@H](NC(=O)[C@@H](N)CCCNC(=N)N)C(C)C)C(=O)N[C@H](C(=O)N[C@@H](CC(N)=O)C(=O)N[C@@H](CC(C)C)C(=O)NC1(C)CCCCCCC=CCCCC(C)(C(=O)N[C@H](C(=O)N2CCC[C@H]2C(N)=O)C(C)C)NC(=O)[C@H](CCC(=O)O)NC(=O)[C@H](CCCNC(=N)N)NC(=O)[C@H](CC(C)C)NC(=O)[C@H]([C@@H](C)O)NC(=O)[C@H](C)NC(=O)[C@H](Cc2ccccc2)NC1=O)C(C)C (stereo partly shown) [H14] (H-RVKLVNL[X1]FATLRE[ξαMeNle(6-ylidene)]VP-NH2; staple 8-15; N-terminus and C-terminus assumed)
- EC50 (NCI-H82): ~12.5 µM
- viability at 24 h, 4 µM ([1]; H14 4 μM): 113%
- viability at 24 h, 14 µM ([1]; H14 14 μM): 119%
- toxicity for normal hepatocytes (in words) (Human hepatocytes): not toxic
